Our source for the EC50 values is patent US8877707B2, “Inhibitors of HCV NS5A” (Presidio Pharmaceuticals, Inc., priority 2010, dated 2014).

SMILES strings stand for the structures.

The subject of the assay is HCV genotype 1b replicon in Huh 7 cells. The experiment in a line: HCV replicon assay (1b_Huh-Luc/Neo-ET cell line, luciferase readout). It is filed as cell-based. The settings on record: Hepatitis C virus, Huh-7; HCV 1b replicon; read-out: Inhibition of HCV genotype 1b. In a few lines: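 Huh 7 cells carrying a bicistronic genotype 1b luciferase replicon were treated with compound in triplicate the day after plating and incubated 72 h. Luciferase activity expressed as % of untreated control; EC50 from a four-parameter logistic fit, repeated several times.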
Regarding `COC(=O)N[C@H](C(=O)N1CCC[C@H]1c1ncc(-c2ccc3cc(-c4cnc5nc([C@@H]6CCCN6C(=O)[C@@H](NC(=O)OC)[C@@H](C)OC)[nH]c5c4)ccc3c2)[nH]1)[C@@H](C)OC` [compound 519], the EC50 is below 1 nM. Next, `CCC(CC)[C@H](NC(=O)OC)C(=O)N1CCC[C@H]1c1ncc(-c2ccc3cc(-c4ccc5nc([C@@H]6CCCN6C(=O)[C@@H](NC(=O)OC)C(CC)CC)[nH]c5n4)ccc3c2)[nH]1` [compound 520]: below 1 nM; `CC[C@H](C)[C@H](NC(=O)OC)C(=O)N1CCC[C@H]1c1ncc(-c2ccc3cc(-c4ccc5nc([C@@H]6CCCN6C(=O)[C@@H](NC(=O)OC)[C@@H](C)CC)[nH]c5n4)ccc3c2)[nH]1` [compound 521]: below 1 nM.

Take `CC[C@@H](C)[C@H](NC(=O)OC)C(=O)N1CCC[C@H]1c1ncc(-c2ccc3cc(-c4ccc5nc([C@@H]6CCCN6C(=O)[C@@H](NC(=O)OC)[C@H](C)CC)[nH]c5n4)ccc3c2)[nH]1` [compound 522]: the EC50 is below 1 nM. Next, `COC(=O)N[C@@H](C(=O)N1CCC[C@H]1c1ncc(-c2ccc3cc(-c4ccc5nc([C@@H]6CCCN6C(=O)[C@H](NC(=O)OC)C6=CCC=CC6)[nH]c5n4)ccc3c2)[nH]1)C1=CCC=CC1` [compound 523]: below 1 nM. Take `CC[C@H](C)[C@H](NC(=O)OC)C(=O)N1CCC[C@H]1c1nc2ccc(-c3ccc4cc(-c5cnc([C@@H]6CCCN6C(=O)[C@@H](NC(=O)OC)[C@@H](C)O)[nH]5)ccc4c3)cc2[nH]1` [compound 524]: the EC50 was below 1 nM. The figure for `COC(=O)N[C@H](C(=O)N1CCC[C@H]1c1ncc(-c2ccc3cc(-c4ccc5nc([C@@H]6CCCN6C(=O)[C@@H](NC(=O)OC)[C@@H](C)OC)[nH]c5c4)ccc3c2)[nH]1)C(C)C` [compound 525] is below 1 nM; for `CC[C@H](C)[C@H](NC(=O)OC)C(=O)N1CCC[C@H]1c1ncc(-c2ccc3cc(-c4ccc5nc([C@@H]6CCCN6C(=O)[C@@H](NC(=O)OC)[C@@H](C)OC)[nH]c5c4)ccc3c2)[nH]1` [compound 526] it is below 1 nM; for `COC(=O)N[C@H](C(=O)N1CCC[C@H]1c1ncc(-c2ccc3cc(-c4cc5[nH]c([C@@H]6CCCN6C(=O)[C@@H](NC(=O)OC)C(C)C)nc5cn4)ccc3c2)[nH]1)C(C)C` [compound 527] it is below 1 nM. Regarding `COC(=O)N[C@H](C(=O)N1CCC[C@H]1c1nc2ccc(-c3ccc4cc(-c5cnc([C@@H]6CCCN6C(=O)[C@@H](NC(=O)OC)[C@@H](C)OC)[nH]5)ccc4c3)cc2[nH]1)C1CCCC1` [compound 528], the EC50 is below 1 nM.

`COC(=O)N[C@H](C(=O)N1CCC[C@H]1c1nc2ccc(-c3ccc4cc(-c5cnc([C@@H]6CCCN6C(=O)[C@@H](NC(=O)OC)[C@@H](C)OC)[nH]5)ccc4c3)cc2[nH]1)C1CCCCC1` [compound 529]: the EC50 is below 1 nM. `COC(=O)N[C@H](C(=O)N1CCC[C@H]1c1ncc(-c2ccc3cc(-c4ccc5nc([C@@H]6CCCN6C(=O)[C@@H](NC(=O)OC)[C@@H](C)OC)[nH]c5n4)ccc3c2)[nH]1)[C@@H](C)OC` [compound 530]: the EC50 was below 1 nM. Next, `COC(=O)N[C@H](C(=O)N1CCC[C@H]1c1ncc(-c2ccc3cc(-c4ccc5nc([C@@H]6CCCN6C(=O)[C@@H](NC(=O)OC)C6CCOCC6)[nH]c5c4)nnc3c2)[nH]1)C1CCOCC1` [compound 531]: below 1 nM; `COC(=O)N[C@H](C(=O)N1CCC[C@H]1c1nc2ccc(-c3ccc4cc(-c5cnc([C@@H]6CCCN6C(=O)[C@@H](NC(=O)OC)[C@@H](C)OC)[nH]5)ccc4c3)nc2[nH]1)C(C)C` [compound 532]: below 1 nM; `COC(=O)N[C@H](C(=O)N1CCC[C@H]1c1nc2ccc(-c3ccc4cc(-c5cnc([C@@H]6CCCN6C(=O)[C@@H](NC(=O)OC)[C@@H](C)OC)[nH]5)ccc4c3)nc2[nH]1)C1CCCC1` [compound 533]: below 1 nM.

For the compound `CC[C@H](C)[C@H](NC(=O)OC)C(=O)N1CCC[C@H]1c1nc2ccc(-c3ccc4cc(-c5cnc([C@@H]6CCCN6C(=O)[C@@H](NC(=O)OC)[C@@H](C)OC)[nH]5)ccc4c3)nc2[nH]1` [compound 534], the EC50 is below 1 nM. The figure for `COC(=O)N[C@H](C(=O)N1CCC[C@H]1c1ncc(-c2ccc3oc(-c4ccc(-c5cnc([C@@H]6CCCN6C(=O)[C@H](NC(=O)OC(C)(C)C)c6ccccc6)[nH]5)cc4)nc3c2)[nH]1)C(C)C` [compound 535] is below 1 nM; for `COC(=O)N[C@H](C(=O)N1CCC[C@H]1c1ncc(-c2ccc(-c3nc4cc(-c5cnc([C@@H]6CCCN6C(=O)[C@H](NC(=O)OC)c6ccccc6)[nH]5)ccc4s3)cc2)[nH]1)C(C)C` [compound 536] it is below 1 nM.

Take `COC(=O)N[C@H](C(=O)N1CCC[C@H]1c1nc2ccc(-c3ccc4cc(-c5ccc6nc([C@@H]7CCCN7C(=O)[C@@H](NC(=O)OC)C(C)C)[nH]c6c5)nnc4c3)cc2[nH]1)C(C)C` [compound 537]: the EC50 was below 1 nM. The figure for `COC(=O)N[C@H](C(=O)N1CCC[C@H]1c1nc2ccc(-c3ccc4cc(-c5ccc6nc([C@@H]7CCCN7C(=O)[C@@H](NC(=O)OC)[C@@H](C)OC)[nH]c6c5)nnc4c3)cc2[nH]1)[C@@H](C)OC` [compound 538] is below 1 nM; for `COC(=O)N[C@H](C(=O)N1CCC[C@H]1c1nc2c([nH]1)-c1ccc(-c3ccc4cc(-c5cnc([C@@H]6CCCN6C(=O)[C@H](NC(=O)OC)c6ccccc6)[nH]5)ccc4n3)cc1CCC2)C(C)C` [compound 539] it is below 1 nM; for `COC(=O)N[C@H](C(=O)N1CCC[C@H]1c1nc2c([nH]1)-c1ccc(-c3ccc4cc(-c5cnc([C@@H]6CCCN6C(=O)[C@H](NC(=O)OC6CCOCC6)c6ccccc6)[nH]5)ccc4n3)cc1CCC2)C(C)C` [compound 540] it is below 1 nM.

For `COC(=O)N[C@H](C(=O)N1CCC[C@H]1C(=O)Nc1ccc(-c2ccc3cc(-c4cnc([C@@H]5CCCN5C(=O)[C@@H](NC(=O)OC)C(C)C)[nH]4)ccc3n2)cc1)C(C)C` [compound 541], the EC50 was 1 to 9.9 nM. Next, `COC(=O)N[C@H](C(=O)N1CCC[C@H]1C(=O)Nc1ccc(-c2ccc3cc(-c4cnc([C@@H]5CCCN5C(=O)[C@@H](NC(=O)OC)C5CCOCC5)[nH]4)ccc3n2)cc1)C1CCOCC1` [compound 542]: 1 to 9.9 nM. The figure for `COC(=O)N[C@@H](C(=O)N1CCC[C@H]1C(=O)Nc1ccc(-c2ccc3cc(-c4cnc([C@@H]5CCCN5C(=O)[C@H](NC(=O)OC)c5ccccc5)[nH]4)ccc3n2)cc1)c1ccccc1` [compound 543] is below 1 nM. `COC(=O)N[C@H](C(=O)N1CCC[C@H]1CNC(=O)c1ccc(-c2ccc3cc(-c4cnc([C@@H]5CCCN5C(=O)[C@@H](NC(=O)OC)C(C)C)[nH]4)ccc3n2)cc1)C(C)C` [compound 544]: the EC50 was below 1 nM. Next, `COC(=O)N[C@@H](C(=O)N1CCC[C@H]1CNC(=O)c1ccc(-c2ccc3cc(-c4cnc([C@@H]5CCCN5C(=O)[C@H](NC(=O)OC)c5ccccc5)[nH]4)ccc3n2)cc1)c1ccccc1` [compound 545]: below 1 nM. Next, `COC(=O)N[C@H](C(=O)N1CCC[C@H]1C(=O)NCc1ccc(-c2ccc3cc(-c4cnc([C@@H]5CCCN5C(=O)[C@@H](NC(=O)OC)C(C)C)[nH]4)ccc3n2)cc1)C(C)C` [compound 546]: 10 to 999 nM; `COC(=O)N[C@@H](C(=O)N1CCC[C@H]1C(=O)NCc1ccc(-c2ccc3cc(-c4cnc([C@@H]5CCCN5C(=O)[C@H](NC(=O)OC)c5ccccc5)[nH]4)ccc3n2)cc1)c1ccccc1` [compound 547]: below 1 nM; `COC(=O)N[C@@H](C(=O)N1CCC[C@H]1CNC(=O)c1cnc2cc(-c3ccc4c(c3)CCc3nc([C@@H]5CCCN5C(=O)[C@H](NC(=O)OC)c5ccccc5)[nH]c3-4)ccc2c1)c1ccccc1` [compound 548]: below 1 nM.

For `COC(=O)N[C@H](C(=O)N1CCC[C@H]1CNC(=O)c1cnc2cc(-c3ccc4c(c3)CCc3nc([C@@H]5CCCN5C(=O)[C@@H](NC(=O)OC)C(C)C)[nH]c3-4)ccc2c1)C(C)C` [compound 549], the EC50 lay within 1 to 9.9 nM. Next, `COC(=O)N[C@H](C(=O)N1CCC[C@H]1CNC(=O)c1cnc2cc(-c3ccc4c(ccc5nc([C@@H]6CCCN6C(=O)[C@@H](NC(=O)OC)C(C)C)[nH]c54)c3)ccc2c1)C(C)C` [compound 550]: 1 to 9.9 nM; `COC(=O)N[C@@H](C(=O)N1CCC[C@H]1CNC(=O)c1cnc2cc(-c3ccc4c(ccc5nc([C@@H]6CCCN6C(=O)[C@H](NC(=O)OC)c6ccccc6)[nH]c54)c3)ccc2c1)c1ccccc1` [compound 551]: below 1 nM. Consider `COC(=O)N[C@H](C(=O)N1CCC[C@H]1CNC(=O)c1cnc2cc(-c3ccc(-c4cnc([C@@H]5CCCN5C(=O)[C@@H](NC(=O)OC)C(C)C)[nH]4)cc3)ccc2c1)C(C)C` [compound 552], for which the EC50 was in the range of 1 to 9.9 nM.

Take `COC(=O)N[C@@H](C(=O)N1CCC[C@H]1CNC(=O)c1cnc2cc(-c3ccc(-c4cnc([C@@H]5CCCN5C(=O)[C@H](NC(=O)OC)c5ccccc5)[nH]4)cc3)ccc2c1)c1ccccc1` [compound 553]: the EC50 was below 1 nM.

`COC(=O)N[C@H](C(=O)N1CCC[C@H]1CNC(=O)c1cnc2cc(-c3ccc4nc([C@@H]5CCCN5C(=O)[C@@H](NC(=O)OC)C(C)C)[nH]c4c3)ccc2c1)C(C)C` [compound 554]: the EC50 lay within 1 to 9.9 nM. Next, `COC(=O)N[C@@H](C)C(=O)N1CCC[C@H]1C(=O)N[C@@H](C)c1ccc(-c2ccc3cc(-c4cnc([C@@H]5CCCN5C(=O)[C@H](C)NC(=O)OC)[nH]4)ccc3c2)cc1` [compound 556]: 10 to 999 nM. The figure for `COC(=O)N[C@H](C(=O)N1CCC[C@H]1C(=O)N[C@@H](C)c1ccc(-c2ccc3cc(-c4cnc([C@@H]5CCCN5C(=O)[C@@H](NC(=O)OC)C(C)C)[nH]4)ccc3c2)cc1)C(C)C` [compound 557] is below 1 nM. The figure for `COC(=O)N[C@H](C(=O)N1CCC[C@H]1C(=O)N[C@@H](C)c1ccc(-c2ccc3cc(-c4cnc([C@@H]5CCCN5C(=O)[C@@H](NC(=O)OC)[C@@H](C)OC)[nH]4)ccc3c2)cc1)[C@@H](C)OC` [compound 558] is below 1 nM.
